Tests used:
Type in all cases: in vivo
[1] = tested on: soybean (Glycine max); test: Test C postemergence, soybean; details: visual injury, 0 to 100 scale (0 no effect, 100 complete control)
[2] = tested on: kochia (Bassia scoparia); test: Test C preemergence, kochia; details: 0 is no effect, 100 is complete control
Procedure, shortened: (§1)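 Plants grown in a sand and loam soil blend received the formulated test chemicals either as a preemergence soil-directed spray or postemergence at 2 to 10 cm height. After 10 or 12 greenhouse days, injury was assessed visually, with 100 meaning complete control.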

[3] = tested on: corn (Zea mays); test: Test C postemergence, corn
[4] = tested on: ryegrass, Italian (Italian ryegrass, Lolium multiflorum); test: Test C postemergence, Italian ryegrass; details: visual injury, 0 to 100 scale (0 no effect, 100 complete control)
Procedure, shortened: as §1

[5] = tested on: kochia (Bassia scoparia); test: Test C postemergence, kochia
Procedure, shortened: as §1

[6] = tested on: blackgrass (Alopecurus myosuroides); test: Test C postemergence, blackgrass; details: 31 g ai/ha Postemergence; visual injury, 0 to 100 scale (0 no effect, 100 complete control)
Procedure, shortened: as §1

[7] = tested on: goosegrass (Eleusine indica); test: Test C preemergence, goosegrass; details: 0 is no effect, 100 is complete control
Procedure, shortened: as §1

[8] = tested on: pigweed, palmer (palmer amaranth, Amaranthus palmeri); test: Test C preemergence, palmer amaranth; details: 0 is no effect, 100 is complete control
Procedure, shortened: as §1

[9] = tested on: soybean (Glycine max); test: Test C preemergence, soybean; details: 0 is no effect, 100 is complete control
Procedure, shortened: as §1

[10] = tested on: wheat (Triticum aestivum); test: Test C postemergence, wheat; details: visual injury, 0 to 100 scale (0 no effect, 100 complete control)
Procedure, shortened: as §1

[11] = tested on: galium (catchweed bedstraw, Galium aparine); test: Test C postemergence, galium
[12] = tested on: ryegrass, Italian (Italian ryegrass, Lolium multiflorum); test: Test C preemergence, Italian ryegrass; details: 0 is no effect, 100 is complete control
Procedure, shortened: as §1

[13] = tested on: blackgrass (Alopecurus myosuroides); test: Test C preemergence, blackgrass; details: 0 is no effect, 100 is complete control
Procedure, shortened: as §1

[14] = tested on: sedge, umbrella (small-flower umbrella sedge, Cyperus difformis); test: Test D flooded paddy test, umbrella sedge; design: key: 0 = no effect, 100 = complete control; details: 250 g ai/ha, Flood; applied to paddy water at 2-leaf stage; visual rating after 13 days; scale 0 (no effect) to 100 (complete control)
Procedure, shortened: (§2)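 Visual response scores run 0 (no effect) to 100 (complete control), judged against controls 13 days after treatment. Compounds were added to paddy water 3 cm deep over soil, around plants at the 2-leaf stage kept in a greenhouse.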

[15] = tested on: foxtail, giant (giant foxtail, Setaria faberi); test: Test C postemergence, giant foxtail
[16] = tested on: ragweed (common ragweed, Ambrosia artemisiifolia); test: Test C postemergence, ragweed; details: visual injury, 0 to 100 scale (0 no effect, 100 complete control)
Procedure, shortened: as §1

[17] = tested on: blackgrass (Alopecurus myosuroides); test: Test C postemergence, blackgrass; details: 125 g ai/ha Postemergence; 0 is no effect, 100 is complete control
[18] = tested on: corn (Zea mays); test: Test C preemergence, corn; details: 0 is no effect, 100 is complete control
Procedure, shortened: as §1

[19] = tested on: foxtail, giant (giant foxtail, Setaria faberi); test: Test C preemergence, giant foxtail; details: 0 is no effect, 100 is complete control
Procedure, shortened: as §1

[20] = tested on: rice (Oryza sativa); test: Test D flooded paddy test, rice; design: key: 0 = no effect, 100 = complete control; details: 250 g ai/ha, Flood; applied to paddy water at 2-leaf stage; visual rating after 13 days; scale 0 (no effect) to 100 (complete control)
Procedure, shortened: as §2

[21] = tested on: pigweed, palmer (palmer amaranth, Amaranthus palmeri); test: Test C postemergence, palmer amaranth; details: visual injury, 0 to 100 scale (0 no effect, 100 complete control)
Procedure, shortened: as §1

[22] = tested on: ragweed (common ragweed, Ambrosia artemisiifolia); test: Test C preemergence, ragweed; details: 0 is no effect, 100 is complete control
Procedure, shortened: as §1

[23] = tested on: ducksalad (Heteranthera limosa); test: Test D flooded paddy test, ducksalad; design: key: 0 = no effect, 100 = complete control; details: 250 g ai/ha, Flood; applied to paddy water at 2-leaf stage; visual rating after 13 days; scale 0 (no effect) to 100 (complete control)
Procedure, shortened: as §2

[24] = tested on: barnyardgrass (Echinochloa crusgalli); test: Test D flooded paddy test, barnyardgrass; design: key: 0 = no effect, 100 = complete control; details: 250 g ai/ha, Flood; applied to paddy water at 2-leaf stage; visual rating after 13 days; scale 0 (no effect) to 100 (complete control)
Procedure, shortened: as §2

[25] = tested on: wheat (Triticum aestivum); test: Test C preemergence, wheat; details: 0 is no effect, 100 is complete control
[26] = tested on: oat, wild (wild oat, Avena fatua); test: Test C preemergence, wild oat; details: 0 is no effect, 100 is complete control
Procedure, shortened: as §1

[27] = tested on: oat, wild (wild oat, Avena fatua); test: Test C postemergence, wild oat
[28] = tested on: goosegrass (Eleusine indica); test: Test C postemergence, goosegrass
Procedure, shortened: as §1

[29] = tested on: horseweed (Erigeron canadensis); test: Test C postemergence, horseweed
Procedure, shortened: as §1

[30] = 31 g ai/ha Postemergence, visual injury, 0 to 100 scale (0 no effect, 100 complete control)
[31] = 125 g ai/ha Postemergence, 0 is no effect, 100 is complete control

In the case of Cc1c(NS(=O)(=O)C(F)(F)F)cc(N2CCCC(OC3CC3)C2=O)c(C)c1F (stereo not shown) [Compound 35], the “Soybean plant response rating” value ([1]; 31 g ai/ha Postemergence) is reported as 60, the “Soybean plant response rating” value ([1]; 125 g ai/ha Postemergence) is reported as 60 and the “Plant response rating (0 to 100 scale), Kochia” value ([2]; 31 g ai/ha Preemergence) is reported as 20. The “Plant response rating (0 to 100 scale), Kochia” value ([2]; 125 g ai/ha Preemergence) was 80, the “Corn plant response rating” value [3, 30] was 50 and the “Plant response rating (0 to 100 scale), Corn” value [3, 31] was 90. The “Ryegrass, Italian plant response rating” value ([4]; 31 g ai/ha Postemergence) was 50, the “Ryegrass, Italian plant response rating” value ([4]; 125 g ai/ha Postemergence) was 60 and the “Kochia plant response rating” value [5, 30] was 50. For the same molecule, the “Plant response rating (0 to 100 scale), Kochia” value [5, 31] was 90, the “Blackgrass plant response rating” value [6] was 50 and the “Plant response rating (0 to 100 scale), Goosegrass” value ([7]; 31 g ai/ha Preemergence) was 100. The “Plant response rating (0 to 100 scale), Goosegrass” value ([7]; 125 g ai/ha Preemergence) was 100, the “Plant response rating (0 to 100 scale), Pigweed, Palmer” value ([8]; 31 g ai/ha Preemergence) was 100 and the “Plant response rating (0 to 100 scale), Pigweed, Palmer” value ([8]; 125 g ai/ha Preemergence) was 100. For the same molecule, the “Plant response rating (0 to 100 scale), Soybean” value ([9]; 31 g ai/ha Preemergence) was 50, the “Plant response rating (0 to 100 scale), Soybean” value ([9]; 125 g ai/ha Preemergence) was 90 and the “Wheat plant response rating” value ([10]; 31 g ai/ha Postemergence) was 60. The “Wheat plant response rating” value ([10]; 125 g ai/ha Postemergence) was 60, the “Galium plant response rating” value [11, 30] was 70 and the “Plant response rating (0 to 100 scale), Galium” value [11, 31] was 100. For the same molecule, the “Plant response rating (0 to 100 scale), Ryegrass, Italian” value ([12]; 31 g ai/ha Preemergence) was 100, the “Plant response rating (0 to 100 scale), Ryegrass, Italian” value ([12]; 125 g ai/ha Preemergence) was 100 and the “Plant response rating (0 to 100 scale), Blackgrass” value ([13]; 31 g ai/ha Preemergence) was 70. The “Plant response rating (0 to 100 scale), Blackgrass” value ([13]; 125 g ai/ha Preemergence) was 100, the “Plant response rating, Sedge, Umbrella” value [14] was 95 and the “Foxtail, Giant plant response rating” value [15, 30] was 40. For the same molecule, the “Plant response rating (0 to 100 scale), Foxtail, Giant” value [15, 31] was 90, the “Ragweed plant response rating” value ([16]; 31 g ai/ha Postemergence) was 60 and the “Ragweed plant response rating” value ([16]; 125 g ai/ha Postemergence) was 90. For the same molecule, the “Plant response rating (0 to 100 scale), Blackgrass” value [17] was 60, the “Plant response rating (0 to 100 scale), Corn” value ([18]; 31 g ai/ha Preemergence) was 30 and the “Plant response rating (0 to 100 scale), Corn” value ([18]; 125 g ai/ha Preemergence) was 50. For the same molecule, the “Plant response rating (0 to 100 scale), Foxtail, Giant” value ([19]; 31 g ai/ha Preemergence) was 90, the “Plant response rating (0 to 100 scale), Foxtail, Giant” value ([19]; 125 g ai/ha Preemergence) was 100 and the “Plant response rating, Rice” value [20] was 0. For the same molecule, the “Pigweed, Palmer plant response rating” value ([21]; 31 g ai/ha Postemergence) was 40, the “Pigweed, Palmer plant response rating” value ([21]; 125 g ai/ha Postemergence) was 70 and the “Plant response rating (0 to 100 scale), Ragweed” value ([22]; 31 g ai/ha Preemergence) was 50. The “Plant response rating (0 to 100 scale), Ragweed” value ([22]; 125 g ai/ha Preemergence) was 90, the “Plant response rating, Ducksalad” value [23] was 55 and the “Plant response rating, Barnyardgrass” value [24] was 0. For the same molecule, the “Plant response rating (0 to 100 scale), Wheat” value ([25]; 31 g ai/ha Preemergence) was 20, the “Plant response rating (0 to 100 scale), Wheat” value ([25]; 125 g ai/ha Preemergence) was 100 and the “Plant response rating (0 to 100 scale), Oat, Wild” value ([26]; 31 g ai/ha Preemergence) was 20. For the same molecule, the “Plant response rating (0 to 100 scale), Oat, Wild” value ([26]; 125 g ai/ha Preemergence) was 90, the “Oat, Wild plant response rating” value [27, 30] was 40 and the “Plant response rating (0 to 100 scale), Oat, Wild” value [27, 31] was 70. For the same molecule, the “Goosegrass plant response rating” value [28, 30] was 70, the “Plant response rating (0 to 100 scale), Goosegrass” value [28, 31] was 90 and the “Horseweed plant response rating” value [29, 30] was 90. The “Plant response rating (0 to 100 scale), Horseweed” value [29, 31] was 100.
